Data taken from patent US20050255538A1, “Methods for screening for AcrAB efflux pump inhibitors” (priority 2002, published 2005).

System: E. coli ΔemrE mutants
Test: Antimicrobial susceptibility assays of efflux pump deletion mutants
Assay type: cell-based, Escherichia coli
Details: ΔemrE mutants in ΔacrAB ΔacrEF background vs parent
Experimental: The PCR mixtures contained 50 ng of E. coli chromosomal DNA, 40 pmol of each primer, 0.2 mM (each) deoxynucleoside triphosphate, 2 mM MgSO4 and 10% (vol/vol) dimethylsufoxide in 1× thermo reaction buffer (New England Biolabs, Mississauga, Ontario, Canada) and were heated for 5 min at 94° C. before the addition of 2 U of Vent DNA polymerase (New England Biolabs) per reaction. The reaction was then processed for 30 cycles of 40 sec: at 94° C., 40 sec at 56° C. and 40 sec at 72° C. before finishing with 10 min at 72° C. The PCR products to be used in each deletion were purified using a Qiaquick™ PCR purification kit (Qiagen Inc.), digested with BamHI and EcoRI or EcoRI and Sail as appropriate, and cloned into EcoRI-SalI-restricted pBluescript II SK(+) via a three-piece ligation. The resultant vectors, pXZL967 and pXZL983, carried deletions in emrE and emrD respectively, as confirmed by restriction analysis and nucleotide sequencing. Digestion of plasmids pXZL967 and pXZL983, with BamHI and SalI released fragments carrying the PCR-generated deletions of emrE (246 bp in-frame deletion), and emrD (1101 bp in-frame deletion), respectively, which were then cloned into BamHI-SalI-restricted pK03, yielding pXZL975, pXZL987, and pXZL1024 (selected on chloramphenicol (30 μg/ml)-containing LB agar at 30° C.). […]

## CC[n+]1c(-c2ccccc2)c2cc(N)ccc2c2ccc(N)cc21 [ethidium bromide]
  fold increase in MIC values (more susceptible): 32 fold
